Laboratory results reported in publication PMC8032764 (Scientific Reports, 2021).
Read-outs that look alike come from different tables or passages of the source.

Assays:
human GABAA α1β2γ2 = test system: T1, human GABAA α1β2γ2; assay: Two-electrode voltage clamp in Xenopus oocytes, current induced by EC10 of GABA; assay type: cell-based; details: 3000 nM
T1 construct: expressed in transfected cells; host or cells: Xenopus laevis oocytes, cRNA injection
Protocol: (§1) Freshly prepared oocytes of maturation stage VI were bought from Ecocyte Bioscience (Castrop-Rauxel, Germany) and, after overnight delivery, plated into 96-well plates (Greiner no. 651101) for microinjection on a ROBOOCYTE R16 system (Multichannel Systems MCS GmbH, Reutlingen, Germany). Each oocyte was injected with roughly 50 nL of RNA solution. The solution for expressing receptors composed of the human α1, β2 and γ2 subunits contained 3 pg/nL of α1 and β2 RNA and 15 pg/nL of γ2 RNA. The solution for expressing human α2β3γ2 receptors contained 2.5 pg/nL of α2 and β3 RNA, 5 pg/nL of γ2 RNA and 10 pg/nL of GABARAP RNA. The solution for expressing human α3β3γ2 receptors contained 1.3 pg/nL of α3 and β3 RNA and 6.5 pg/nL of γ2 RNA. The solution for expressing human α5β3γ2 receptors contained 1.3 pg/nL of α5 and β3 RNA and 13 pg/nL of γ2 RNA. GABARAP was added to the α2β3γ2 subunit mixture since the expression of γ2 would be low otherwise, as indicated by a weak effect of β-CCM[60]. After the microinjection the oocytes were kept at 20 °C temperature until the electrophysiological experiment. Experiments were done 3 to 5 days later on the ROBOOCYTE instrument which employs the two-microelectrode voltage-clamp technique for membrane voltage control and current measurement. […] During current recording and compound testing the cell membrane was constantly clamped to − 80 mV. Current signals were recorded and stored on a PC-type computer using the ROBOOCYTE software.
(§2) During the microinjection and up to the electrophysiological experiment the oocytes were kept in a solution containing 88 mM NaCl, 1 mM KCl, 2.5 mM NaHCO3, 10 mM HEPES (AppliChem GmbH, Darmstadt, Germany), 0.82 MgSO4, 0.33 mM Ca(NO3)2, 0.33 mM CaCl2, 100 U/mL penicillin (GIBCO, ThermoFisher Scientific) and 100 µg/mL streptomycine (GIBCO, ThermoFisher Scientific). The pH was adjusted to 7.5. During the experiment the voltage-clamped oocyte was constantly superfused by a solution containing 90 mM NaCl, 1 mM KCl, 5 mM HEPES (AppliChem), 1 mM MgCl2 and 1 mM CaCl2 (pH 7.4). GABA and test compounds were added to this solution. GABA concentrations were chosen according to previously determined concentration–response relations for the different human GABAA receptor subunit combinations. Concentrations evoking approximately 10% of a maximal response were selected, i.e., 8 µM for α1β2γ2, 6 µM for α2β3γ2, 10 µM for α3β3γ2 and 5 µM for α5β3γ2. Solutions containing GABA or test compounds were freshly prepared at least every second day. […] Compounds were further diluted in DMSO and finally in extracellular saline to reach a DMSO concentration of 0.1%. The same amount of DMSO was added to the control solutions without test compounds. […]

human GABAA α2β3γ2 = test system: T2, human GABAA α2β3γ2; assay: as above; assay type: cell-based; details: 3000 nM
T2 construct: expressed in transfected cells; host or cells: Xenopus laevis oocytes, cRNA injection
Protocol: as §1, §2

human GABAA α3β3γ2 = test system: T3, human GABAA α3β3γ2; assay: as above; assay type: cell-based; details: 3000 nM
T3 construct: expressed in transfected cells; host or cells: Xenopus laevis oocytes, cRNA injection
Protocol: as §1, §2

[1] = Pharmacokinetics, single intravenous dosing; assay type: in vivo; details: C57/Bl6, mouse, plasma, 2.0 mg/kg i.v., 2 male
Benzodiazepine (central) = assay: Cerep binding; details: 10 μM; [3H]flunitrazepam; rat cerebral cortex
NMDA (PCP) = assay: Cerep binding; details: 10 μM; [3H]TCP; rat cerebral cortex
[2] = Pharmacokinetics, single intravenous dosing; assay type: in vivo; details: Wistar, rat, plasma, 4.3 mg/kg i.v., 2 male
Galanin 2 = test system: T4, Galanin 2; assay: Cerep binding; parameters: species or system human; details: 10 μM; [125I]galanin; hum. recomb. (CHO)
T4 construct: purchased Eurofins Cerep

SMILES: Cc1onc(-c2ccc(F)cc2)c1COc1ccc(C(=O)N2CCS(=O)(=O)CC2)cn1 [basmisanil]
- inhibition (human GABAA α1β2γ2): < 10%
- inhibition (human GABAA α2β3γ2): < 10%
- inhibition (human GABAA α3β3γ2): < 10%
- half-life [1]: 30 min
- clearance ([1]; read-out: Total CL): 37 mL/min/kg
- Vd ([1]; read-out: Vss): 1.3 L/kg
- % Inhibition (Benzodiazepine (central)): 76%
- % Inhibition (NMDA (PCP)): 14%
- half-life [2]: 72 min
- clearance ([2]; read-out: Total CL): 54 mL/min/kg
- Vd ([2]; read-out: Vss): 2.9 L/kg
- % Inhibition (Galanin 2): -1%
